# Assay results from patent US11319299B2, “Substituted carboxamides as inhibitors of WDR5 protein-protein binding” (PROPELLON THERAPEUTICS INC., priority 2016, dated 2022).
# Biological target: WDR5 (Homo sapiens (Human), UniProt P61964)
# Experiment: Surface Plasmon Resonance (SPR) assay, KD and residence time
# Assay type: binding
# Conditions: surface plasmon resonance (SPR) assay; read-out: WDR5 binding affinity (KD)
row,Kd,SMILES
1,50.9 nM,"C[C@@H]1CN(c2cc(F)c(-c3cnc(N4CCOCC4)nc3)cc2NC(=O)c2cc(F)cc(C(F)(F)F)c2)C[C@H](C)N1C [Example 176, 3-fluoro-N-[4-fluoro-5-(2-morpholin-4-ylpyrimidin-5-yl)-2-[(3R,5S)-3,4,5-trimethylpiperazin-1-yl]phenyl]-5-(trifluoromethyl)benzamide]"
2,1.68 nM,"CCCN(C)C1CCN(c2cc(F)c(-c3cnc(N4CCOCC4)nc3)cc2NC(=O)c2c[nH]c(=O)cc2C(F)(F)F)C1 (stereo not drawn) [Example 303, N-[4-fluoro-2-[3-[methyl(propyl)amino]pyrrolidin-1-yl]-5-(2-morpholin-4-ylpyrimidin-5-yl)phenyl]-6-oxo-4-(trifluoromethyl)-1H-pyridine-3-carboxamide]"
3,2.56 nM,"C[C@@H]1CN(c2cc(F)c(C3=CCN(c4ncccn4)C3)cc2NC(=O)c2c[nH]c(=O)cc2C(F)(F)F)C[C@H](C)N1C [Example 335, N-[4-fluoro-5-(1-pyrimidin-2-yl-2,5-dihydropyrrol-3-yl)-2-[(3R,5S)-3,4,5-trimethylpiperazin-1-yl]phenyl]-6-oxo-4-(trifluoromethyl)-1H-pyridine-3-carboxamide]"
4,2.25 nM,"C[C@@H]1CN(c2cc(F)c(-c3cnc(N(C)C)c(C#N)c3)cc2NC(=O)c2c[nH]c(=O)cc2C(F)(F)F)C[C@H](C)N1C [Example 220, N-[5-[5-cyano-6-(dimethylamino)pyridin-3-yl]-4-fluoro-2-[(3R,5S)-3,4,5-trimethylpiperazin-1-yl]phenyl]-6-oxo-4-(trifluoromethyl)-1H-pyridine-3-carboxamide]"
5,133 nM,"C[C@@H]1CN(c2cc(F)c(-c3ccc(N4CCOCC4)c(F)c3)cc2NC(=O)c2c[nH]c(=O)cc2C(F)(F)F)C[C@@H](C)N1C (stereo in doubt) [Example 357, N-[4-fluoro-5-(3-fluoro-4-morpholin-4-ylphenyl)-2-[(3R,5R)-3,4,5-trimethylpiperazin-1-yl]phenyl]-6-oxo-4-(trifluoromethyl)-1H-pyridine-3-carboxamide]"
6,9.88 nM,"C[C@@H]1CN(c2cc(F)c(-c3cnc(O)c(C#N)c3)cc2NC(=O)c2c[nH]c(=O)cc2C(F)(F)F)C[C@H](C)N1C [Example 123, N-[5-(5-cyano-6-hydroxypyridin-3-yl)-4-fluoro-2-[(3R,5S)-3,4,5-trimethylpiperazin-1-yl]phenyl]-6-oxo-4-(trifluoromethyl)-1H-pyridine-3-carboxamide]"
7,1.08 nM,"C[C@@H]1CN(c2cc(F)c(C3=CCN(Cc4ccc(F)cc4)CC3)cc2NC(=O)c2c[nH]c(=O)cc2C(F)(F)F)C[C@H](C)N1C [Example 153, N-[4-fluoro-5-[1-[(4-fluorophenyl)methyl]-3,6-dihydro-2H-pyridin-4-yl]-2-[(3R,5S)-3,4,5-trimethylpiperazin-1-yl]phenyl]-6-oxo-4-(trifluoromethyl)-1H-pyridine-3-carboxamide]"
8,1.36 nM,"C[C@@H]1CN(c2cc(F)c(C3=CCCN(C(=O)OC(C)(C)C)C3)cc2NC(=O)c2c[nH]c(=O)cc2C(F)(F)F)C[C@H](C)N1C [Example 322, tert-butyl 5-[2-fluoro-5-[[6-oxo-4-(trifluoromethyl)-1H-pyridine-3-carbonyl]amino]-4-[(3R,5S)-3,4,5-trimethylpiperazin-1-yl]phenyl]-3,6-dihydro-2H-pyridine-1-carboxylate]"

# Same assay, conditions: surface plasmon resonance (SPR); read-out: WDR5 binding affinity (KD)
row,Kd,SMILES
1,4.03 nM,"CC1CN(c2cc(F)c(-c3ccc(F)c(C(N)=O)c3)cc2NC(=O)c2c[nH]c(=O)cc2C(F)F)CCN1C (stereo in doubt) [Example 596, N-[5-(3-carbamoyl-4-fluorophenyl)-4-fluoro-2-[(3R)-3,4-dimethylpiperazin-1-yl]phenyl]-4-(difluoromethyl)-6-oxo-1H-pyridine-3-carboxamide]"
2,0.649 nM,"C[C@@H]1CN(c2ncc(-c3cc(NC(=O)c4ccc(F)cc4C(F)(F)F)c(N4C[C@@H](C)N(C)[C@@H](C)C4)cc3F)cn2)C[C@H](C)O1 [Example 431, 4-fluoro-N-[4-fluoro-5-[2-[(2R,6S)-2,6-dimethylmorpholin-4-yl]pyrimidin-5-yl]-2-[(3S,5R)-3,4,5-trimethylpiperazin-1-yl]phenyl]-2-(trifluoromethyl)benzamide]"
3,1.75 nM,"C[C@@H]1CN(c2cc(F)c(-c3nc(C(=O)NCC4CC4)cs3)cc2NC(=O)c2c[nH]c(=O)cc2C(F)(F)F)C[C@H](C)N1C [Example 482, N-(cyclopropylmethyl)-2-[2-fluoro-5-[[6-oxo-4-(trifluoromethyl)-1H-pyridine-3-carbonyl]amino]-4-[(3R,5S)-3,4,5-trimethylpiperazin-1-yl]phenyl]-1,3-thiazole-4-carboxamide]"
4,2.03 nM,"C[C@@H]1CN(c2cc(F)c(-c3cc(F)c(C(=O)NC4CCCCC4)c(F)c3)cc2NC(=O)c2c[nH]c(=O)cc2C(F)(F)F)C[C@H](C)N1C [Example 710, N-[5-[4-(cyclohexylcarbamoyl)-3,5-difluorophenyl]-4-fluoro-2-[(3R,5S)-3,4,5-trimethylpiperazin-1-yl]phenyl]-6-oxo-4-(trifluoromethyl)-1H-pyridine-3-carboxamide]"
5,3.39 nM,"C[C@@H]1CN(c2ccc(-c3cc(NC(=O)c4cn(C)c(=O)cc4C(F)F)c(N4CCN(C)[C@H](C)C4)cc3F)cn2)CCO1 (stereo in doubt) [Example 519, 4-(difluoromethyl)-N-[4-fluoro-2-[(3R)-3,4-dimethylpiperazin-1-yl]-5-[6-[(2R)-2-methylmorpholin-4-yl]pyridin-3-yl]phenyl]-1-methyl-6-oxopyridine-3-carboxamide]"
6,2.84 nM,"C[C@@H]1CN(c2ccc(-c3cc(NC(=O)c4c[nH]c(=O)cc4C(F)(F)F)c(N4CCN(C)[C@H](C)C4)cc3F)cn2)CCO1 (stereo in doubt) [Example 433, N-[4-fluoro-2-[(3R)-3,4-dimethylpiperazin-1-yl]-5-[6-[(2R)-2-methylmorpholin-4-yl]pyridin-3-yl]phenyl]-6-oxo-4-(trifluoromethyl)-1H-pyridine-3-carboxamide]"
7,1.59 nM,"CC(C)OC(=O)N1CCC=C(c2cc(NC(=O)c3c[nH]c(=O)cc3C(F)F)c(N3C[C@@H](C)N(C)[C@@H](C)C3)cc2F)C1 [Example 725, propan-2-yl 5-[5-[[4-(difluoromethyl)-6-oxo-1H-pyridine-3-carbonyl]amino]-2-fluoro-4-[(3R,5S)-3,4,5-trimethylpiperazin-1-yl]phenyl]-3,6-dihydro-2H-pyridine-1-carboxylate]"
8,2.21 nM,"C[C@@H]1CN(c2cc(F)c(-c3nc(C(=O)N(C)C4CCCCC4)cs3)cc2NC(=O)c2c[nH]c(=O)cc2C(F)(F)F)C[C@H](C)N1C [Example 485, N-cyclohexyl-2-[2-fluoro-5-[[6-oxo-4-(trifluoromethyl)-1H-pyridine-3-carbonyl]amino]-4-[(3R,5S)-3,4,5-trimethylpiperazin-1-yl]phenyl]-N-methyl-1,3-thiazole-4-carboxamide]"
9,1.29 nM,"C[C@@H]1CN(c2cc(F)c(-c3ccc(C(=O)N(C)CC4CC4)c(F)c3)cc2NC(=O)c2c[nH]c(=O)cc2C(F)(F)F)C[C@H](C)N1C [Example 733, N-[5-[4-[cyclopropylmethyl(methyl)carbamoyl]-3-fluorophenyl]-4-fluoro-2-[(3R,5S)-3,4,5-trimethylpiperazin-1-yl]phenyl]-6-oxo-4-(trifluoromethyl)-1H-pyridine-3-carboxamide]"
10,2.31 nM,"C[C@@H]1CN(c2ccc(-c3cc(NC(=O)c4ccc(F)cc4C(F)(F)F)c(N4C[C@@H](C)N(C)[C@@H](C)C4)cc3F)cn2)C[C@H](C)O1 [Example 432, 4-fluoro-N-[4-fluoro-5-[6-[(2R,6S)-2,6-dimethylmorpholin-4-yl]pyridin-3-yl]-2-[(3S,5R)-3,4,5-trimethylpiperazin-1-yl]phenyl]-2-(trifluoromethyl)benzamide]"
11,1.25 nM,"C[C@@H]1CN(c2cc(F)c(-c3cnc(N4CCOC[C@H]4C)nc3)cc2NC(=O)c2c[nH]c(=O)cc2C(F)F)CCN1C (stereo in doubt) [Example 628, 4-(difluoromethyl)-N-[4-fluoro-2-[(3R)-3,4-dimethylpiperazin-1-yl]-5-[2-[(3R)-3-methylmorpholin-4-yl]pyrimidin-5-yl]phenyl]-6-oxo-1H-pyridine-3-carboxamide]"
12,1.53 nM,"C[C@@H]1CN(c2cc(F)c(-c3cnc(N4CCOC[C@H]4C)nc3)cc2NC(=O)c2cn(C)c(=O)cc2C(F)F)CCN1C (stereo in doubt) [Example 607, 4-(difluoromethyl)-N-[4-fluoro-2-[(3R)-3,4-dimethylpiperazin-1-yl]-5-[2-[(3R)-3-methylmorpholin-4-yl]pyrimidin-5-yl]phenyl]-1-methyl-6-oxopyridine-3-carboxamide]"
13,0.609 nM,"CC1CN(c2cc(F)c(-c3cnc(N4CCC(C)(O)CC4)nc3)cc2NC(=O)c2c[nH]c(=O)cc2C(F)(F)F)CCN1C (stereo in doubt) [Example 424, N-[4-fluoro-5-[2-(4-hydroxy-4-methylpiperidin-1-yl)pyrimidin-5-yl]-2-[(3R)-3,4-dimethylpiperazin-1-yl]phenyl]-6-oxo-4-(trifluoromethyl)-1H-pyridine-3-carboxamide]"
14,2.49 nM,"CC1CN(c2cc(F)c(C3=CCCN(c4ncc(C#N)s4)C3)cc2NC(=O)c2c[nH]c(=O)cc2C(F)F)CCN1C (stereo in doubt) [Example 688, N-[5-[1-(5-cyano-1,3-thiazol-2-yl)-3,6-dihydro-2H-pyridin-5-yl]-4-fluoro-2-[(3R)-3,4-dimethylpiperazin-1-yl]phenyl]-4-(difluoromethyl)-6-oxo-1H-pyridine-3-carboxamide]"
15,2.87 nM,"CC1CN(c2cc(F)c(-c3cccc(N4CCNCC4)n3)cc2NC(=O)c2c[nH]c(=O)cc2C(F)(F)F)CCN1C (stereo in doubt) [Example 742, N-[4-fluoro-5-(6-piperazin-1-ylpyridin-2-yl)-2-[(3R)-3,4-dimethylpiperazin-1-yl]phenyl]-6-oxo-4-(trifluoromethyl)-1H-pyridine-3-carboxamide]"
16,1.72 nM,"C[C@@H]1CN(c2cc(F)c(C3=CCN(c4ncc(C#N)cn4)C3)cc2NC(=O)c2c[nH]c(=O)cc2C(F)(F)F)C[C@H](C)N1C [Example 588, N-[5-[1-(5-cyanopyrimidin-2-yl)-2,5-dihydropyrrol-3-yl]-4-fluoro-2-[(3R,5S)-3,4,5-trimethylpiperazin-1-yl]phenyl]-6-oxo-4-(trifluoromethyl)-1H-pyridine-3-carboxamide]"
